Where a name gives a salt, the structure may show the parent alone.
Legend:
[1] = test system: mouse Colon 26 adenocarcinoma; experiment: Antitumor activity on mouse Colon 26 adenocarcinoma (Application Example 1); format: in vivo; conditions: for Tumor-disappeared mice: i.v., every 4th day, three times
Method: (§1) When the volume of the tumor reached around 100 mm^3, the block copolymer-drug complex pharmaceutical preparation synthesized in Example 3, 4 or 5 or adriamycin hydrochloride was intravenously administered once a day every 4th day in total of three times (indicated by arrows in the drawings) to examine their antitumor effects. […] Each dose was determined as the amount of adriamycin of the peak 1 of the HPLC chromatogram. The antitumor effects of each drug were estimated based on the tumor growth curve, the number of mice in which the tumor disappeared and the chemotherapeutic index. The results are shown in Tables 1 and 2 and FIGS. 16 and 17.

[2] = LD50 for comparison of chemotherapeutic index (Table 2); conditions: mouse, in vivo, iv
Method: as §1

[3] = Drug concentration in blood plasma by radioactivity (Application Example 2); conditions: for % of dose/ml (blood plasma): i.v., total of adriamycin and adriamycin dimer, 14C
Method: Colon 26 adenocarcinoma cells were transplanted subcutaneously in the subaxillary region of each CDF1 female mouse, to which the block copolymer-drug complex pharmaceutical preparation prepared in Example 6 or 7 or ^14 C-labeled adriamycin hydrochloride was intravenously administered 12 days after transplanting. Each drug was used by diluting it in physiological saline prior to its use. After 15 minutes and 1, 4, 24 and 48 hours of the administration, blood samples were collected and various organs were excised. The drug concentrations in the blood plasma and each internal organ were determined by measuring radioactivity thereof using a liquid scintillation counter. In this test, both adriamycin and adriamycin dimer are labeled with ^14 C.

[4] = test system: mouse Colon 26 adenocarcinoma; experiment: Antitumor activity on mouse Colon 26 adenocarcinoma (Application Example 3); format: in vivo; conditions: i.v., every 4th day, three times
Method: In the case of the pharmaceutical preparation of Example 8, its effect obtained from the only first administration was also examined. […] Each dose was determined as the amount of adriamycin of the peak 1 of the HPLC chromatogram. The antitumor effects of each drug were estimated based on the tumor growth curve and the number of mice in which the tumor disappeared. The results are shown in Table 6 and FIGS. 25, 26 and 27.

[5] = Drug concentration in tumor by radioactivity (Application Example 2); format: in vivo, CDF1 female mouse; conditions: mouse, iv, i.v., total of adriamycin and adriamycin dimer, 14C, read-out: % of dose/g (tumor)
[6] = Drug concentration in heart by radioactivity (Application Example 2); format: in vivo, CDF1 female mouse; conditions: mouse, iv, i.v., total of adriamycin and adriamycin dimer, 14C, read-out: % of dose/g (heart)

COc1cccc2c1C(=O)c1c(O)c3c(c(O)c1C2=O)C[C@@](O)(C(=O)CO)C[C@@H]3O[C@H]1C[C@H](N)[C@H](O)[C@H](C)O1 [Adriamycin hydrochloride, adriamycin hydrochloride]
Tumor-disappeared mice ([1]; 5 mg/kg): 0/5 | Tumor-disappeared mice ([1]; 10 mg/kg): 2/5 | Min T/C42 (minimum dose when T/C (%) becomes 42% or less on the 14th day after the initial administration) ([1]; 14th day after initial administration): 5.95 | C. index (chemotherapeutic index: LD50/(Min T/C42)) ([1]; LD50 /(Min T/C42)): 2.52 | LD50 [2]: 15 mg/kg | % of dose/ml (blood plasma) ([3]; 15 minutes): 0.47 % of dose/ml | % of dose/ml (blood plasma) ([3]; 1 hour): 0.29 % of dose/ml | % of dose/ml (blood plasma) ([3]; 4 hours): 0.36 % of dose/ml | % of dose/ml (blood plasma) ([3]; 24 hours): 0.10 % of dose/ml | % of dose/ml (blood plasma) ([3]; 48 hours): 0.07 % of dose/ml | drug retention in blood plasma ([3]; mouse, in vivo): quickly disappeared from blood plasma | Tumor-disappeared mice ([4]; 5 mg/kg): 0/5 | Tumor-disappeared mice ([4]; 10 mg/kg): 2/5 | tissue uptake at 0.25 h ([5]; 15 minutes): 2.3 %ID/g | tissue uptake at 1 h ([5]; 1 hour): 2.4 %ID/g | tissue uptake at 4 h ([5]; 4 hours): 1.7 %ID/g | tissue uptake at 24 h ([5]; 24 hours): 1.3 %ID/g | tissue uptake at 48 h ([5]; 48 hours): 1 %ID/g | tissue uptake at 0.25 h ([6]; 15 minutes): 10.5 %ID/g | tissue uptake at 1 h ([6]; 1 hour): 7 %ID/g | tissue uptake at 4 h ([6]; 4 hours): 4.6 %ID/g | tissue uptake at 24 h ([6]; 24 hours): 1.1 %ID/g | tissue uptake at 48 h ([6]; 48 hours): 0.5 %ID/g

Source: patent US6080396A, “Anthracycline compound derivative and pharmaceutical preparation containing the same” (Japan Science and Technology Corporation, priority 1995, dated 2000)
